In ChEMBL document CHEMBL4732259, “Imidazo[1,2-c]pyrimidin-5(6H)-one inhibitors of CDK2: Synthesis, kinase inhibition and co-crystal structure” (Eur J Med Chem, 2021):

Experiments:
[1] = molecular target: T1, Cyclin-dependent kinase 2/cyclin E1 (Homo sapiens, UniProt P24941); experiment: Inhibition of CDK2/cyclin E (unknown origin) using peptide substrate in presence of [gamma33P]ATP by image analyser; format: protein-complex assay
K562 = experiment: Antiproliferative activity against human K562 cells assessed as cell viability at 10 uM incubated for 72 hrs by resazurin assay; format: functional; conditions: read-out: Activity
MOLM-13 = experiment: Antiproliferative activity against human MOLM-13 cells assessed as cell viability at 10 uM incubated for 72 hrs by resazurin assay; format: functional; conditions: read-out: Activity
MV4-11 = experiment: Antiproliferative activity against human MV4-11 cells assessed as cell viability at 10 uM incubated for 72 hrs by resazurin assay; format: functional; conditions: read-out: Activity
[2] = molecular target: T1, Cyclin-dependent kinase 2/cyclin E1; experiment: Inhibition of CDK2/cyclin E (unknown origin) expressed in baculovirus infected Sf9 cells using histone H1 as substrate in presence of [gamma33P]ATP by image analyser
[3] = molecular target: Cyclin-dependent kinase 1/cyclin B1 (Homo sapiens, UniProt P06493); experiment: Inhibition of CDK1/cyclin B (unknown origin) using peptide substrate in presence of [gamma33P]ATP by image analyser; format: protein-complex assay
Cyclin-dependent kinase 1/cyclin B1, sequence (P06493 whole entry): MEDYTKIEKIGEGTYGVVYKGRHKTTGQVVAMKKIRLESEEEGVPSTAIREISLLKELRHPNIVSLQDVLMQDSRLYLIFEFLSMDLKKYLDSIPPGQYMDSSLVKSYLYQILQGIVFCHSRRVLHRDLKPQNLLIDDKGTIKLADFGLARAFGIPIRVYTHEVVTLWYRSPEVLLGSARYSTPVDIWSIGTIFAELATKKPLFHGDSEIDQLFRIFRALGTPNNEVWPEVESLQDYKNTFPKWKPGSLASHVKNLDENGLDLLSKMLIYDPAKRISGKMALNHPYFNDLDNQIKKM
Cyclin-dependent kinase 1/cyclin B1, sequence (P14635 whole entry, further chain): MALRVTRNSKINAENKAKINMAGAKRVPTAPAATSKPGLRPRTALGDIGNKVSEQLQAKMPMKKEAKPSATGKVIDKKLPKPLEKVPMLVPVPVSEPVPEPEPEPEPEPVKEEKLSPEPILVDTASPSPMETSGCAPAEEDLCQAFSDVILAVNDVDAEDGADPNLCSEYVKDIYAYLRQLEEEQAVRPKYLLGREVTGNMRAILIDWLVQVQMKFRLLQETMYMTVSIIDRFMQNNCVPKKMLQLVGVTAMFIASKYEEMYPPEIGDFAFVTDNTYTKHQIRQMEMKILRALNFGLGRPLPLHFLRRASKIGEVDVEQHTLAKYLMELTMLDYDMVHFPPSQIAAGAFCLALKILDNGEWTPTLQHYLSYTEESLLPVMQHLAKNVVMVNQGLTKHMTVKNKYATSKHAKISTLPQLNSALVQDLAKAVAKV

CDK2/Cyclin A2 = CDK2/Cyclin A2 (Homo sapiens, UniProt P24941); experiment: Inhibition of CDK2/cyclin A2 (unknown origin) using peptide substrate in presence of [gamma33P]ATP by image analyser; format: protein-complex assay
[4] = Inhibition of CDK3/cyclin A2 (unknown origin) using peptide substrate in presence of [gamma33P]ATP by image analyser; design: species or system Homo sapiens
[5] = molecular target: Cyclin-dependent kinase 4/cyclin D1 (Homo sapiens, UniProt P11802); experiment: Inhibition of CDK4/cyclin D1 (unknown origin) using peptide substrate in presence of [gamma33P]ATP by image analyser; format: protein-complex assay
Cyclin-dependent kinase 4/cyclin D1, sequence (P11802 whole entry): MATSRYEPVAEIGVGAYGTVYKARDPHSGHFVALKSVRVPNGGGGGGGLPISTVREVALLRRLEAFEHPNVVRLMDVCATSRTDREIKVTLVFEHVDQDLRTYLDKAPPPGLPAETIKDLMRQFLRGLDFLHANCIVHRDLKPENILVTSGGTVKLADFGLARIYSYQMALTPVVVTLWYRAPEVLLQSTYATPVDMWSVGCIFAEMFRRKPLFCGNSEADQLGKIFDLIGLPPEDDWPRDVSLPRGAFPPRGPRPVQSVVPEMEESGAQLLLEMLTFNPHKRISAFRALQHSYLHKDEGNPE
Cyclin-dependent kinase 4/cyclin D1, sequence (P24385 whole entry, further chain): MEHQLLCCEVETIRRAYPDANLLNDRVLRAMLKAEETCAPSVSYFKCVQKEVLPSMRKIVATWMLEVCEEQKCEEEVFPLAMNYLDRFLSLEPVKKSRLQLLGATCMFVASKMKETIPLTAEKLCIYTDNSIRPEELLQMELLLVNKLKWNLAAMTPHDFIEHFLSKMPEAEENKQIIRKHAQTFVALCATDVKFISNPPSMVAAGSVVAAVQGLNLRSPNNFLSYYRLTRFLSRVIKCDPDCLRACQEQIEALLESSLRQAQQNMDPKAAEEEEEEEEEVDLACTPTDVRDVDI

CDK9/cyclin T1 = CDK9/cyclin T1 (Homo sapiens, UniProt P50750); experiment: Inhibition of CDK9/cyclin T1 (unknown origin) using peptide substrate in presence of [gamma33P]ATP by image analyser; format: protein-complex assay
CDK9/cyclin T1, sequence (O60563 whole entry): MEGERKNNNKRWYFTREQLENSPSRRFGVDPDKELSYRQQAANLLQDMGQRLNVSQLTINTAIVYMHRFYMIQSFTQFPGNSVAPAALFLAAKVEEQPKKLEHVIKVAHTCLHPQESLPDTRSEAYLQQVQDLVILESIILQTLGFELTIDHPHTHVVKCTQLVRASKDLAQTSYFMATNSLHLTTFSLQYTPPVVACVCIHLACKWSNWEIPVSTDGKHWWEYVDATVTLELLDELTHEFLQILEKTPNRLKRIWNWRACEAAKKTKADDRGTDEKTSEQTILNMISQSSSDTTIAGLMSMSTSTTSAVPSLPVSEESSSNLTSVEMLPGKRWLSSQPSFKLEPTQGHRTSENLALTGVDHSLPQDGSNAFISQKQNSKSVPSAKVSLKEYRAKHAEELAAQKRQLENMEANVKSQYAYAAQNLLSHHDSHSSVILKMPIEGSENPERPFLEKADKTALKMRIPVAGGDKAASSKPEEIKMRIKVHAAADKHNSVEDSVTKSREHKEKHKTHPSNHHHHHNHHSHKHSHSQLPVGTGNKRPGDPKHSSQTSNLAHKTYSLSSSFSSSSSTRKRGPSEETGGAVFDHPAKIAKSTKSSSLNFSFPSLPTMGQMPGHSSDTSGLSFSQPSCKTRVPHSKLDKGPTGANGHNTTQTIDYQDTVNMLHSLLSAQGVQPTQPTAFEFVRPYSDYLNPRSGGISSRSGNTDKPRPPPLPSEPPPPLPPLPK
CDK9/cyclin T1, sequence (P50750 whole entry): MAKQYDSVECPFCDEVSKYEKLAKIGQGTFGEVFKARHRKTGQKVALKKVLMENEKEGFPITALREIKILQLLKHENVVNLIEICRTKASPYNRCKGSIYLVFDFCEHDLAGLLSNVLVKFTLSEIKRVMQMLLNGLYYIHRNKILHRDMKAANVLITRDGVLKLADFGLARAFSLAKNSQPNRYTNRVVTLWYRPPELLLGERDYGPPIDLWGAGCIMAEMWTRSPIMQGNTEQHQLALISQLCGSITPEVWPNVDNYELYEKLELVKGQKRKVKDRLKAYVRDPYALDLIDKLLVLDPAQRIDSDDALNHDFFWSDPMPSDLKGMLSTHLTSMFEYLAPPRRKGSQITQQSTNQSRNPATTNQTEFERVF

O=c1[nH]cc(/C=C/c2ccccc2)c2nccn12
IC50 [1]: 17.8 µM | viability at 10 µM (K562): 107% | viability at 10 µM (MOLM-13): 55.6% | viability at 10 µM (MV4-11): 42.3%

O=c1[nH]cc(-c2ccc(O)cc2Cl)c2nccn12
IC50 [1]: 1.5 µM | viability at 10 µM (K562): 105% | viability at 10 µM (MOLM-13): 86.2% | viability at 10 µM (MV4-11): 85%

O=c1[nH]cc(-c2ccccc2)c2nccn12
IC50 [2]: 6.6 µM | viability at 10 µM (K562): 108% | viability at 10 µM (MOLM-13): 87.4% | viability at 10 µM (MV4-11): 89.2%

CC(=O)OCCCn1cc(C2CCCCC2)c2nccn2c1=O
IC50 [1]: 7.7 µM | viability at 10 µM (K562): 101% | viability at 10 µM (MOLM-13): 93.8% | viability at 10 µM (MV4-11): 88.5%

NS(=O)(=O)c1ccc(Nc2nc(-c3cccc(-c4ccccc4)c3)c3nc[nH]c3n2)cc1
IC50 [1]: 0.031 µM | IC50 [3]: 4.3 µM | IC50 (CDK2/Cyclin A2): 0.022 µM | IC50 [4]: 2.87 µM | IC50 [5]: > 20 µM | IC50 (CDK9/cyclin T1): 9.4 µM | viability at 10 µM (K562): 94.5% | viability at 10 µM (MOLM-13): 98.3% | viability at 10 µM (MV4-11): 62.8%

O=c1[nH]cc(-c2ccccc2)c2nc(Br)cn12
IC50 [1]: 24.4 µM | viability at 10 µM (K562): 105% | viability at 10 µM (MOLM-13): 83.9% | viability at 10 µM (MV4-11): 77.2%

O=c1[nH]cc(-c2ccsc2)c2nccn12
IC50 [1]: 8.9 µM | viability at 10 µM (K562): 105% | viability at 10 µM (MOLM-13): 87.8% | viability at 10 µM (MV4-11): 84.9%

O=c1[nH]cc(-c2ccc(-c3c[nH]c(=O)n4ccnc34)cc2)c2nccn12
IC50 [1]: > 12.5 µM | viability at 10 µM (K562): 111% | viability at 10 µM (MOLM-13): 87.5% | viability at 10 µM (MV4-11): 91.4%

O=c1[nH]cc(-c2cccc(O)c2)c2nccn12
IC50 [1]: 4.8 µM | viability at 10 µM (K562): 104% | viability at 10 µM (MOLM-13): 85.6% | viability at 10 µM (MV4-11): 82%

O=c1n(CCO)cc(C2CCCCC2)c2nccn12
IC50 [1]: 1.5 µM | viability at 10 µM (K562): 103% | viability at 10 µM (MOLM-13): 91.9% | viability at 10 µM (MV4-11): 88.4%

COc1ccc(-c2cn3c(=O)[nH]cc(F)c3n2)cc1
IC50 [1]: > 25 µM | viability at 10 µM (K562): 109% | viability at 10 µM (MOLM-13): 51.8% | viability at 10 µM (MV4-11): 42.9%

O=c1[nH]cc(-c2ccccc2)c2ncc(Br)n12
IC50 [1]: > 50 µM | viability at 10 µM (K562): 109% | viability at 10 µM (MOLM-13): 82.7% | viability at 10 µM (MV4-11): 78.6%

O=c1n(CCCO)cc(C2CCCCC2)c2nccn12
IC50 [1]: 3 µM | viability at 10 µM (K562): 104% | viability at 10 µM (MOLM-13): 94.1% | viability at 10 µM (MV4-11): 91.7%

COc1ccc(-c2cn3c(=O)[nH]cc(-c4ccc(OC)cc4)c3n2)cc1
IC50 [1]: > 25 µM | viability at 10 µM (K562): 36.2% | viability at 10 µM (MOLM-13): 15.3% | viability at 10 µM (MV4-11): 52%

O=C1c2ccccc2C(=O)N1Cn1cc(C2CCCCC2)c2nccn2c1=O
IC50 [1]: > 50 µM | viability at 10 µM (K562): 107% | viability at 10 µM (MOLM-13): 91.3% | viability at 10 µM (MV4-11): 87.4%
